According to patent US7074789B2, “Kinase inhibitors” (Amgen Inc., priority 1999, dated 2006):
pIC50: −log10 of the molar value.

Legend:
Assay type in all cases: biochemical
ErbB4 = biological target: T1, ErbB4 (Homo sapiens, UniProt Q15303); experiment: Kinase inhibition assay (33P transfer), ErbB4; conditions: read-out: ErbB4-1
T1 construct: Kinases are expressed as either kinase domains or full length constructs; made in house

Lyn = biological target: T2, Lyn (Homo sapiens, UniProt P07948); experiment: Kinase inhibition assay (33P transfer), Lyn; conditions: Table 6, Lyn-1 kinase inhibition class
T2 construct: Kinases are expressed as either kinase domains or full length constructs; made in house
How it was run: (§1)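 Each enzyme, purified to near homogeneity by affinity chromatography, was incubated with ATP carrying 33P and a substrate polymer fixed to the plate. Unbound label was removed with dilute phosphoric acid (0.5%) before adding scintillant and counting. Potency is given as the compound level cutting label uptake by 50%.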

Lck = biological target: T3, Lck (Homo sapiens, UniProt P06239); experiment: Kinase inhibition assay (33P transfer), Lck; conditions: Table 3; read-out: Lck-1
T3 construct: Kinases are expressed as either kinase domains or full length constructs; made in house
T3 sequence (P06239 whole entry, species assumed, the tested form may be a part): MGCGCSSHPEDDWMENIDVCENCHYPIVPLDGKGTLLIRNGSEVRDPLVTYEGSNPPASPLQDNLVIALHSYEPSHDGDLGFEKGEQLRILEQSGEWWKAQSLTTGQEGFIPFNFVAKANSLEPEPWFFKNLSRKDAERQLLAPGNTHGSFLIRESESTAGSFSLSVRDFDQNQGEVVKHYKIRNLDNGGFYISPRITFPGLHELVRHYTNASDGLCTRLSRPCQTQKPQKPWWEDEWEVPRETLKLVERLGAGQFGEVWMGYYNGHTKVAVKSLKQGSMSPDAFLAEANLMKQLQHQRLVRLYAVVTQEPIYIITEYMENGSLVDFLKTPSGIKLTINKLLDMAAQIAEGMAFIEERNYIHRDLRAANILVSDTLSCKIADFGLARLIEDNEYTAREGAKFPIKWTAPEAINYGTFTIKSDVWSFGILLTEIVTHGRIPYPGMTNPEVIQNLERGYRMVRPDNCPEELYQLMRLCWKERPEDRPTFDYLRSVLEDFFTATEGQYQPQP
How it was run: (§2)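 Kinase domain or full-length constructs, GST- or polyHis-tagged, expressed in E. coli or baculovirus-High Five cells, sometimes with regulatory polypeptides. Activity measured as 33PO4 transfer from ATP to plate-bound poly(Glu,Tyr) 4:1 or poly(Arg,Ser) 3:1; after incubation, plates washed with 0.5% phosphoric acid and counted by liquid scintillation.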

IGFR-1 = biological target: T4, IGFR-1 (Homo sapiens, UniProt P08069); experiment: Kinase inhibition assay (33P transfer), IGFR-1; conditions: Table 2, kinase inhibition class
T4 construct: Kinases are expressed as either kinase domains or full length constructs; made in house

FGFR1 = biological target: T5, FGFR1 (Homo sapiens, UniProt P11362); experiment: Kinase inhibition assay (33P transfer), FGFR1; conditions: read-out: FGFR1-1
T5 construct: Kinases are expressed as either kinase domains or full length constructs; made in house
T5 sequence (P11362 22-822, species assumed): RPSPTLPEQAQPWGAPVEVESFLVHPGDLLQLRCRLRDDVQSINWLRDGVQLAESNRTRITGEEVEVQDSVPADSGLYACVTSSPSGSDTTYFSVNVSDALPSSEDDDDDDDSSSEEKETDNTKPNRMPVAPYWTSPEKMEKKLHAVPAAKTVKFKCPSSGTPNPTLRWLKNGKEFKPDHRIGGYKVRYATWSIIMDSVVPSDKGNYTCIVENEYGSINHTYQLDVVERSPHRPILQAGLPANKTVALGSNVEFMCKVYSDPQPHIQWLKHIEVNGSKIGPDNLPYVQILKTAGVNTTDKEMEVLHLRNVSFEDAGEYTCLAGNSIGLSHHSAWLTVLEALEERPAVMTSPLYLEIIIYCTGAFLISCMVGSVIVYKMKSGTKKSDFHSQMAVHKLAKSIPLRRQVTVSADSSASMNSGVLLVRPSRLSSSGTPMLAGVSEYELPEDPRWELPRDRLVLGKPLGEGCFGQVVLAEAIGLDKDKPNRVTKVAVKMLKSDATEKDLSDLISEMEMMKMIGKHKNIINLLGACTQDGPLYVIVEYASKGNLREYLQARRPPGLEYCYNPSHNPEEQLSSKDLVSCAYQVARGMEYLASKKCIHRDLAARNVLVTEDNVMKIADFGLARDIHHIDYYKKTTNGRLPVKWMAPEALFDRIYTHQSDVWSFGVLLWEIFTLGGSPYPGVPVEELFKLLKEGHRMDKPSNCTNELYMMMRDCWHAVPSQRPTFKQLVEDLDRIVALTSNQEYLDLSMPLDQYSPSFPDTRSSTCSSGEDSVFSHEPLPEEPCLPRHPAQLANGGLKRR

c-Met = biological target: T6, c-Met (Homo sapiens, UniProt P08581); experiment: Kinase inhibition assay (33P transfer), c-Met; conditions: Table 2, kinase inhibition class; read-out: Met-1
T6 construct: Kinases are expressed as either kinase domains or full length constructs; made in house
How it was run: as §1

AKT = biological target: T7, AKT (Homo sapiens, UniProt Q9Y243); experiment: Kinase inhibition assay (33P transfer), AKT; conditions: Table 2, kinase inhibition class; read-out: AKT3-1
T7 construct: Kinases are expressed as either kinase domains or full length constructs; made in house
T7 sequence (Q9Y243 whole entry, the tested form may be a part): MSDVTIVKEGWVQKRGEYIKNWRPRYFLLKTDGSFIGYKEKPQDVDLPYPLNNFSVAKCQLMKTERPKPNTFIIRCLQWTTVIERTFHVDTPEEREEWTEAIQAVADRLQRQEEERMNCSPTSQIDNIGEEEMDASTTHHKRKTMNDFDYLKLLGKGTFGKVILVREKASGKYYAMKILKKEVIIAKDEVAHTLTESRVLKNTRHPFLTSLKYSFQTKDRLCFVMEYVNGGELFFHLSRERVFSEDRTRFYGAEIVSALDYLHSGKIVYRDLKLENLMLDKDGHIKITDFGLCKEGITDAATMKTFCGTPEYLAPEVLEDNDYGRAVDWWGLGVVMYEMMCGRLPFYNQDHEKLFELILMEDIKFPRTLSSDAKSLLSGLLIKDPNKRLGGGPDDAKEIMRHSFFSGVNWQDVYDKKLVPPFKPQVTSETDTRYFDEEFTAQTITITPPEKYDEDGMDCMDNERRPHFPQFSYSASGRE
How it was run: as §2

EGFR = biological target: T8, EGFR (Homo sapiens, UniProt P00533); experiment: Kinase inhibition assay (33P transfer), EGFR; conditions: Table 2, kinase inhibition class; read-out: EGFR-1
T8 construct: Kinases are expressed as either kinase domains or full length constructs; made in house
T8 sequence (P00533 25-1210, species assumed): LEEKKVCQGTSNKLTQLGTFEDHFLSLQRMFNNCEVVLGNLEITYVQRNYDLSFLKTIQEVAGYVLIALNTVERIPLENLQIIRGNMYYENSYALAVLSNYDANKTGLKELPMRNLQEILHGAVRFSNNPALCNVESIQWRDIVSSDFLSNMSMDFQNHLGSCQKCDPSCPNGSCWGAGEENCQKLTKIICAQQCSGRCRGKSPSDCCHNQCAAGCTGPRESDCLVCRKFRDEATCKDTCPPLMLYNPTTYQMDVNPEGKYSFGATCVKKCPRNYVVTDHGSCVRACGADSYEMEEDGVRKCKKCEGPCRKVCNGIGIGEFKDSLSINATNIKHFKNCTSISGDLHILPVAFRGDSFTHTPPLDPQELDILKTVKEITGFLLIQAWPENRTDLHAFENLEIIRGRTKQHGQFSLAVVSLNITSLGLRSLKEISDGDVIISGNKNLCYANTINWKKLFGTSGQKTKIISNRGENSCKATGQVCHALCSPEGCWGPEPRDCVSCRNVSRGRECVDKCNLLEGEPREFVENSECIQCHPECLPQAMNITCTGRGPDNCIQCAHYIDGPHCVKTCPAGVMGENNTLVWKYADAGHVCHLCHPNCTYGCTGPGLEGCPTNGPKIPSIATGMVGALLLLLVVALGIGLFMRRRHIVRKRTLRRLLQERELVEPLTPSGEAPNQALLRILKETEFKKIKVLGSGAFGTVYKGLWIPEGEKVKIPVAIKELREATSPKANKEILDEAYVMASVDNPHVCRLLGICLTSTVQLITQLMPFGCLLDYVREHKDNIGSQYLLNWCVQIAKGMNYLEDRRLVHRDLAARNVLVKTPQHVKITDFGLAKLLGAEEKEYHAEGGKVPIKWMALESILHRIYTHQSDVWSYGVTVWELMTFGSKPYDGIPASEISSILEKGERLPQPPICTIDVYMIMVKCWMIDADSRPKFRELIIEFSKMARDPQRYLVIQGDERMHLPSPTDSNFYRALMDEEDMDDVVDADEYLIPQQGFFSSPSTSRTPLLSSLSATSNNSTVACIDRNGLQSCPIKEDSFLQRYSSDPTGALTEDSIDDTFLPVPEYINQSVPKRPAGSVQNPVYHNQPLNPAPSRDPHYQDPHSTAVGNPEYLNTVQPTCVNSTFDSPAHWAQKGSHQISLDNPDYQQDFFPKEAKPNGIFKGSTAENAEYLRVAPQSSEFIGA
How it was run: as §1

Zap-70 = biological target: T9, Zap-70 (Homo sapiens, UniProt P43403); experiment: Kinase inhibition assay (33P transfer), Zap-70; conditions: Table 3; read-out: Zap-1
T9 construct: Kinases are expressed as either kinase domains or full length constructs; made in house
T9 sequence (P43403 1-619): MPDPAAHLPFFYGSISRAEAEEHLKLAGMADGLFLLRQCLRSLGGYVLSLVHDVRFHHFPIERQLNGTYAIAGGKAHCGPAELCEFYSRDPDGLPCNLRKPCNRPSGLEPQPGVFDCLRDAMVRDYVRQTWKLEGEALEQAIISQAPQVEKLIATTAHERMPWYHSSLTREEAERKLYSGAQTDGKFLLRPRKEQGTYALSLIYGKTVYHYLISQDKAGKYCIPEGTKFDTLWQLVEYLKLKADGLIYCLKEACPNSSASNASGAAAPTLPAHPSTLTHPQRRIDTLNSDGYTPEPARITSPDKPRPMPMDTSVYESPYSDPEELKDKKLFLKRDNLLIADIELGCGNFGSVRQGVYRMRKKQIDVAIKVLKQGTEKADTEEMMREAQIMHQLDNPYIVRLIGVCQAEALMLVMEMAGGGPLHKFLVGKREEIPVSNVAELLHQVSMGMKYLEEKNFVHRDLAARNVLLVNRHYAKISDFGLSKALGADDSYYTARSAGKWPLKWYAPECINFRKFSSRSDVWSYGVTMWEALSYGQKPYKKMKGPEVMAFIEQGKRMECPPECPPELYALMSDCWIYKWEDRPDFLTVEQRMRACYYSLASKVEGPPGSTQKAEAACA
How it was run: as §2

Hck-1 = biological target: T10, Hck-1 (Homo sapiens, UniProt P08631); experiment: Kinase inhibition assay (33P transfer), Hck; conditions: Table 6, Hck-1 kinase inhibition class
T10 construct: Kinases are expressed as either kinase domains or full length constructs; made in house
T10 sequence (P08631 whole entry, the tested form may be a part): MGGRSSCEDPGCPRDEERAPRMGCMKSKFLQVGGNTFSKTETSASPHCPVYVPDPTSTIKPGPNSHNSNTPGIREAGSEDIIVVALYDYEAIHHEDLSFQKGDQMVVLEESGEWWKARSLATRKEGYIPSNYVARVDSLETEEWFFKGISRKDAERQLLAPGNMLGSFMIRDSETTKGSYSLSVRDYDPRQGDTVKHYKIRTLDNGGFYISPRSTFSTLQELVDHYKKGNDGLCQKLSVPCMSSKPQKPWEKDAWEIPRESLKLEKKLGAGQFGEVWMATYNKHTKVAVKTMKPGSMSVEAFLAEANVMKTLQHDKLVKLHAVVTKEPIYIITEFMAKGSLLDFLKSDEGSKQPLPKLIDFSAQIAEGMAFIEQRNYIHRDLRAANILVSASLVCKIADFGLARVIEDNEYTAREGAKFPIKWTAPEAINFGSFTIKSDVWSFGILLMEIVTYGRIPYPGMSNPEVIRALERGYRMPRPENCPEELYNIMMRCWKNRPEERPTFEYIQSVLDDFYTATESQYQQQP

Kdr = biological target: T11, Kdr (Homo sapiens, UniProt P35968); experiment: Kinase inhibition assay (33P transfer), Kdr; conditions: Table 3; read-out: KDR-1
T11 construct: Kinases are expressed as either kinase domains or full length constructs; made in house
How it was run: as §2

Itk = biological target: T12, Itk (Homo sapiens, UniProt Q08881); experiment: Kinase inhibition assay (33P transfer), Itk; conditions: Table 3; read-out: Itk-1
T12 construct: Kinases are expressed as either kinase domains or full length constructs; made in house
T12 sequence (Q08881 1-620): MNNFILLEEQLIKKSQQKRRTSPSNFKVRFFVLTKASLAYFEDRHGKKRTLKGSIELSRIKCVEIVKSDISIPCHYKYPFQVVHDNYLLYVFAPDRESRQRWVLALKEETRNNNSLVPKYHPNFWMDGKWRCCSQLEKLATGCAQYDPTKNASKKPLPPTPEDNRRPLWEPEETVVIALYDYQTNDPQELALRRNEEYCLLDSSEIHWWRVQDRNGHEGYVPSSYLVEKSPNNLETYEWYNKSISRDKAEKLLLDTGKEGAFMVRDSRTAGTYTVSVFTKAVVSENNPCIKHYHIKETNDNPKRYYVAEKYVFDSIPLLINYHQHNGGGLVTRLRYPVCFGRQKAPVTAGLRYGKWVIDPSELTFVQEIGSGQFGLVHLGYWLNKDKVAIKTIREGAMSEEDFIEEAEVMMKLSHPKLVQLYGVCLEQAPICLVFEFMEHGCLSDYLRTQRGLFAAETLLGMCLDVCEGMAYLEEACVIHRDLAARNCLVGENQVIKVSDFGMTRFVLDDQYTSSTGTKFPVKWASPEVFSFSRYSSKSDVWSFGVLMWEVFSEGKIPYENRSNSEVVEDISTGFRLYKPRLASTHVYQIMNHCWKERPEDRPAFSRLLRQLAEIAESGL
How it was run: as §1

Fyn = biological target: T13, Fyn (Homo sapiens, UniProt P06241); experiment: Kinase inhibition assay (33P transfer), Fyn; conditions: read-out: Fyn-1
T13 construct: Kinases are expressed as either kinase domains or full length constructs; made in house
How it was run: as §1

Tek = biological target: T14, Tek (Homo sapiens, UniProt Q02763); experiment: Kinase inhibition assay (33P transfer), Tek; conditions: read-out: Tek-1
T14 construct: Kinases are expressed as either kinase domains or full length constructs; made in house
How it was run: as §1

T1 sequence (Q15303 26-1308, species assumed): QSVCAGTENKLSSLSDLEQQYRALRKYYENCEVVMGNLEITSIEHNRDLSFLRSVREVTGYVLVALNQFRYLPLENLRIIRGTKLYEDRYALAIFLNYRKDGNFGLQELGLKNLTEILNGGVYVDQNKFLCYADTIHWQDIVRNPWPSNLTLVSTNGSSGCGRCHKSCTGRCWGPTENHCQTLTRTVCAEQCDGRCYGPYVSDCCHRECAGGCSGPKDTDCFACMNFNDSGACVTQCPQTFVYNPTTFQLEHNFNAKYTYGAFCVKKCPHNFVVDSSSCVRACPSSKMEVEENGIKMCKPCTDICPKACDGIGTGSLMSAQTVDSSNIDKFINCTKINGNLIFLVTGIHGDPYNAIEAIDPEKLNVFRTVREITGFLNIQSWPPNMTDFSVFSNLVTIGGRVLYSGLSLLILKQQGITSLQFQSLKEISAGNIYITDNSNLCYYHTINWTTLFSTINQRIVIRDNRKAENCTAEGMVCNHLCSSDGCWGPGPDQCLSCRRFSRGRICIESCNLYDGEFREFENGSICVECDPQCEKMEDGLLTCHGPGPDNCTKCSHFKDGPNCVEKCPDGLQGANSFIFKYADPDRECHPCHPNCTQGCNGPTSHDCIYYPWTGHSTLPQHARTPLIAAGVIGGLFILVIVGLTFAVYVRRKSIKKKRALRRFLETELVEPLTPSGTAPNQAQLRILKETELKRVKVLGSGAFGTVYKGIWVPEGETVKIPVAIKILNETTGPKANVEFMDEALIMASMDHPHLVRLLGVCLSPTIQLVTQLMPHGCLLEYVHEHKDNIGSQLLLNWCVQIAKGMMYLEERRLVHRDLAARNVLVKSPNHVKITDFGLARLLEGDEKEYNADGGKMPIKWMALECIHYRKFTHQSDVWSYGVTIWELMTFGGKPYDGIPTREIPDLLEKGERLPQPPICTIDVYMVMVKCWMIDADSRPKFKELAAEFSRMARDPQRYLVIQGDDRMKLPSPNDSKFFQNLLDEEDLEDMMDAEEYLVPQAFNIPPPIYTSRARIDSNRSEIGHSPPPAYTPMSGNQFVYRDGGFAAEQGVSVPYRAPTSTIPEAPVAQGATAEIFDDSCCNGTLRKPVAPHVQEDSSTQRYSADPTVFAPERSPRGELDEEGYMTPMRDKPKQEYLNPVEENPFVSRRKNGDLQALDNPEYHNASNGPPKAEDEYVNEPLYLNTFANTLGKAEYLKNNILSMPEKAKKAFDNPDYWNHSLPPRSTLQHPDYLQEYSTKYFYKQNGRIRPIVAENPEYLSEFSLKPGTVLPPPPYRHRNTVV

| SMILES | pIC50 (ErbB4) | pIC50 (Lyn) | pIC50 (Lck) | pIC50 (IGFR-1) | pIC50 (FGFR1) | pIC50 (c-Met) | pIC50 (AKT) | pIC50 (EGFR) | pIC50 (Zap-70) | pIC50 (Hck-1) | pIC50 (Kdr) | pIC50 (Itk) | pIC50 (Fyn) | pIC50 (Tek) |
| --- | --- | --- | --- | --- | --- | --- | --- | --- | --- | --- | --- | --- | --- | --- |
| COc1cc(Nc2ncnc(Nc3ccc(Br)cc3F)n2)cc(OC)c1OC [Compound 41] | < 5.00 | > 6.05 | 5.11 to 5.27 | 5.27 to 6.05 | 5.11 to 5.27 | 5.11 to 5.27 | < 5.00 | > 6.05 | < 5.00 | < 5.00 | > 6.05 | 5.00 to 5.11 | 5.27 to 6.05 | 5.00 to 5.11 |
| COc1cc(Nc2ncnc(Nc3ccc(C)c(NS(C)(=O)=O)c3)n2)cc(OC)c1OC [Compound 305] | 5.28 to 6.06 | > 6.06 | 5.28 to 6.06 | 5.12 to 5.28 | 5.28 to 6.06 | 5.01 to 5.12 | < 5.01 | 5.28 to 6.06 | < 5.01 | 5.12 to 5.28 | > 6.06 | < 5.01 | > 6.06 | < 5.01 |
| COc1cc(Nc2ncnc(N3CCc4cc([N+](=O)[O-])ccc43)n2)cc(OC)c1OC [Compound 187] | 5.08 to 5.25 | < 4.97 | < 4.97 | < 4.97 | < 4.97 | < 4.97 | < 4.97 | < 4.97 | < 4.97 | < 4.97 | 5.25 to 6.03 | < 4.97 | < 4.97 | < 4.97 |
| COCCOc1ccc(Nc2ncnc(-n3c(N)nc4ccccc43)n2)cc1OC [Compound 287] | < 4.96 | < 4.96 | 5.23 to 6.01 | > 6.01 | 5.23 to 6.01 | < 4.96 | < 4.96 | 4.96 to 5.07 | < 4.96 | < 4.96 | > 6.01 | 5.07 to 5.23 | < 4.96 | < 4.96 |
| COc1cc(Nc2ncnc(N(C/C=C/c3ccccc3)c3ccc(Cl)cc3)n2)cc(OC)c1OC [Compound 56] | < 5.05 | 5.32 to 6.10 | 5.16 to 5.32 | 5.05 to 5.16 | 5.16 to 5.32 | < 5.05 | < 5.05 | > 6.10 | < 5.05 | < 5.05 | 5.32 to 6.10 | < 5.05 | < 5.05 | < 5.05 |
| COc1cc(Nc2ncnc(-n3c(=O)[nH]c4ccccc43)n2)cc(OC)c1OC [Compound 325] | 5.22 to 5.99 | 4.94 to 5.05 | < 4.94 | < 4.94 | < 4.94 | < 4.94 | < 4.94 | 4.94 to 5.05 | < 4.94 | < 4.94 | > 5.99 | < 4.94 | 5.05 to 5.22 | < 4.94 |

Further lines, results first:

| pIC50 (ErbB4) | pIC50 (Lyn) | pIC50 (Lck) | pIC50 (IGFR-1) | pIC50 (FGFR1) | pIC50 (c-Met) | pIC50 (AKT) | pIC50 (EGFR) | pIC50 (Zap-70) | pIC50 (Hck-1) | pIC50 (Kdr) | pIC50 (Itk) | pIC50 (Fyn) | pIC50 (Tek) | SMILES |
| --- | --- | --- | --- | --- | --- | --- | --- | --- | --- | --- | --- | --- | --- | --- |
| < 4.96 | > 6.01 | 5.23 to 6.01 | > 6.01 | 5.23 to 6.01 | 5.06 to 5.23 | < 4.96 | > 6.01 | < 4.96 | 4.96 to 5.06 | > 6.01 | < 4.96 | 5.23 to 6.01 | < 4.96 | COc1cc(Nc2ncnc(Nc3ccc(Cl)cc3F)n2)cc(OC)c1OC [Compound 306] |
| 5.23 to 6.00 | 5.23 to 6.00 | 5.23 to 6.00 | > 6.00 | 5.23 to 6.00 | > 6.00 | 5.06 to 5.23 | 5.06 to 5.23 | < 4.95 | < 4.95 | > 6.00 | < 4.95 | 5.23 to 6.00 | 4.95 to 5.06 | c1coc(-c2cc(Nc3ncnc(Nc4ccc(N5CCOCC5)cc4)n3)[nH]n2)c1 [Compound 340] |
| 5.20 to 5.98 | > 5.98 | 5.20 to 5.98 | 5.20 to 5.98 | 5.20 to 5.98 | < 4.93 | < 4.93 | > 5.98 | < 4.93 | 5.04 to 5.20 | > 5.98 | 5.04 to 5.20 | > 5.98 | < 4.93 | COc1cc(Nc2ncnc(Nc3ccc(C)c(N)c3)n2)cc(OC)c1OC [Compound 935] |
| > 5.97 | > 5.97 | > 5.97 | > 5.97 | 5.19 to 5.97 | 5.19 to 5.97 | < 4.92 | > 5.97 | < 4.92 | 5.03 to 5.19 | > 5.97 | 4.92 to 5.03 | > 5.97 | < 4.92 | COc1cc(Nc2ncnc(Nc3cccc(F)c3)n2)cc(OC)c1OC [Compound 304] |
| < 4.91 | < 4.91 | 5.18 to 5.96 | > 5.96 | 4.91 to 5.02 | < 4.91 | < 4.91 | < 4.91 | < 4.91 | < 4.91 | > 5.96 | < 4.91 | < 4.91 | < 4.91 | COc1ccc(Nc2ncnc(-n3c(N)nc4ccccc43)n2)cc1OC [Compound 285] |
| > 6.03 | > 6.03 | 5.25 to 6.03 | > 6.03 | 5.25 to 6.03 | > 6.03 | 4.98 to 5.08 | > 6.03 | < 4.98 | 5.25 to 6.03 | > 6.03 | 5.08 to 5.25 | > 6.03 | 5.08 to 5.25 | COc1cc(Nc2ncnc(Nc3cc(-c4cccs4)n[nH]3)n2)cc(OC)c1OC [Compound 318] |
| 5.22 to 6.00 | > 6.00 | 5.22 to 6.00 | 5.22 to 6.00 | 5.22 to 6.00 | < 4.95 | < 4.95 | > 6.00 | < 4.95 | 5.22 to 6.00 | > 6.00 | < 4.95 | > 6.00 | < 4.95 | COCCOc1cc(Nc2ncnc(Nc3ccc(C)c(O)c3)n2)ccc1OC [Compound 127] |
